{"source": "patent US8735140B2", "about": "“Preservation and composition of bioprocess algae for production of lipids, seedstock, and feed” (Kuehnle AgroSystems, Inc., priority 2008, dated 2014)", "system": "algae strains KAS503, KAS633 and KAS635", "assay": "Sorbitol treatment prior to alginate embedding, cell recovery after preservation", "format": "cell-based", "protocol": "In one specific embodiment, cells are treated with trehalose solution at various concentrations and left overnight. Cells are centrifuged the next day to remove the trehalose solution, and then re-suspended in sterile 0.5M D-sorbitol (Fisher Scientific […]) dissolved in salt or fresh-water medium as required by specific algae species. Cells are left to stand for 2 hours with mild agitation. After 2 hours, cells are centrifuged again to remove the 0.5M sorbitol solution and re-suspended in fresh or salt-water medium. Cells are counted after the re-suspension. Cell viability is determined by comparing the cell growth in control set with the experimental set. Specifically, cell counts are performed on all samples. The averaged density value (in cells per ml) for all the cultures after treatment is defined as “rejuvenation cell count.” In some samples, the percent recovery of cells immediately after storage is also determined. The formulae are illustrated as follows: Growth=(rejuvenation cell count)/(initial cell count) Cell recovery after storage=(cell density after storage)/(initial cell density), with controls set at 100% cell recovery. Viability after storage and rejuvenation in nutrient medium=(Growth of treatment)/(Growth of control)×100%, with controls set at 100% viability", "data": [{"compound": "OC[C@@H](O)[C@@H](O)[C@H](O)[C@@H](O)CO", "note": "[sorbitol, D-sorbitol]", "values": [{"measurement": "Cell recovery after preservation", "result": "increases cell recovery"}]}]}
